# From US20240199677A1, “GLYCOSYLTRANSFERASE INHIBITORS” (CALIFORNIA INSTITUTE OF TECHNOLOGY, priority 2018, published 2024)
# How the values were obtained:
# C. difficile ATCC43596 = assay: Minimum inhibitory concentration assay
# [1] = test system: N-glycosylation of β-catenin; assay: Western blot, N-glycosylation of β-catenin (FIG. 6); assay type: cell-based; conditions: concentrations as low as
# C. perfringens = assay type: cell-based; conditions: FIG. 4
# HCT 116 = assay: Cytotoxicity MTT assay, HCT 116; assay type: cell-based; conditions: Homo sapiens, HCT-116, read-out: Cytotoxicity IC50 HCT 116
# Procedure: (§1) Selected molecules were tested for cytotoxicity (IC50) in cancer and healthy cells via a MTT colorimetric assay.
# (§2) Each cell was cultured in recommended medium by ATCC, and the IC50 data were obtained with each cell line.
# [2] = Cytotoxicity MTT assay, HepG2; assay type: cell-based; conditions: human
# KB = assay: Cytotoxicity MTT assay, KB; assay type: cell-based; conditions: Homo sapiens, KB; read-out: Cytotoxicity IC50 KB
# Procedure: as §1, §2
# Panc-1 cells [3] = assay: Cell viability assay (FIG. 5), Panc-1; assay type: cell-based; conditions: after about 3 days; 0.44 μM, 1.77 μM, and 7.08 μM
# Procedure: The cytotoxic activity of 11 against AsPc-1 and Panc-1 cells was also measured through cell viability assays (FIG. 5). […] Similarly, the percentage of viable Panc-1 cells was near-zero after about 3 days in the presence of 11 (0.44 μM, 1.77 μM, and 7.08 μM).
# MDA-MB-435S = assay: Cytotoxicity MTT assay, MDA-MB-435S; assay type: cell-based; conditions: Homo sapiens, MDA-MB-435S; read-out: Cytotoxicity IC50 MDA-MB-435S
# Procedure: as §1, §2
# AsPc-1 = assay: Cytotoxicity MTT assay, AsPc-1; assay type: cell-based; conditions: Homo sapiens, ASPC1; read-out: Cytotoxicity IC50 AsPc-1
# Procedure: as §1, §2
# SK-OV-3 = assay: Cytotoxicity MTT assay, SK-OV-3; assay type: cell-based; conditions: Homo sapiens, SK-OV-3; read-out: Cytotoxicity IC50 SK-OV-3
# Procedure: as §1, §2
# AsPc-1 cells = assay: Synergistic assay (checkerboard), 11 and Gemcitabine; assay type: cell-based
# Procedure: The FIC index was calculated according to the following equation. ΣFIC=FICA+FICB=CA/MICA+CB/MICB where MICA and MICB are MIC of drugs A and B, CA and CB are the concentrations of drugs A and B used in combination. In these interaction studies, ΣFIC of less than 0.5 represents synergistic activity.
# These experiments were performed in the same manner as those of Example 7.
# LoVo = assay: Cytotoxicity MTT assay, LoVo; assay type: cell-based; conditions: Homo sapiens, LoVo; read-out: Cytotoxicity IC50 LoVo
# Procedure: as §1, §2
# Hemolysis, sheep blood = assay type: cell-based; conditions: sheep, sheep blood
# Panc-1 = assay: Cytotoxicity MTT assay, Panc-1; assay type: cell-based; conditions: Homo sapiens, PANC-1; read-out: Cytotoxicity IC50 Panc-1
# Procedure: as §1, §2
# DPAGT1 = DPAGT1 (Homo sapiens (Human), UniProt Q9H3H5); assay: DPAGT1 inhibition (FIG. 6); assay type: biochemical
# DPAGT1, sequence (Q9H3H5 whole entry, looked up): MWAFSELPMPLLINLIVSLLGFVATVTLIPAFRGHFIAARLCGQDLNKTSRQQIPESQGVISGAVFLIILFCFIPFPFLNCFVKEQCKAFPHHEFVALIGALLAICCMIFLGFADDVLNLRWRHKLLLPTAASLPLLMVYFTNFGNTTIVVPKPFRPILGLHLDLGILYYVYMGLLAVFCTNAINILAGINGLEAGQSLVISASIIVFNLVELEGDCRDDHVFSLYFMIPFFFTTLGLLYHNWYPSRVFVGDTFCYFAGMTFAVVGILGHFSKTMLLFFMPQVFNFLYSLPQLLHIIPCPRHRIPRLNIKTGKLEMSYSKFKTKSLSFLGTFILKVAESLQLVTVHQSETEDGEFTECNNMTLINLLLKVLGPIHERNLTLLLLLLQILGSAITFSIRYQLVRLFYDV
# Water solubility = assay type: physicochemical
# Caco-2 = assay: Cytotoxicity MTT assay, Caco-2; assay type: cell-based; conditions: Homo sapiens, Caco-2; read-out: Cytotoxicity IC50 Caco-2
# Procedure: as §1, §2
# Panc-1 cells [4] = assay: Boyden Chamber migration assay, Panc-1; assay type: cell-based; conditions: FIG. 7, versus Gemcitabine, Taxol, Tunicamycin
# C. difficile spores = assay: Spore viability testing; assay type: cell-based; conditions: x2 MIC, 24 hours
# [5] = Cytotoxicity MTT assay, Vero cells; assay type: cell-based, monkey; conditions: monkey
# Procedure: (§3) Cytotoxicity Assays. Cytotoxicity assays were performed using Vero monkey kidney (ATCC CCL-81) and HepG2 human hepatoblastoma cell (ATCC HB-8065) lines. Vero or HepG2 cells were cultured in 75 cm^2 flasks and transferred to 96-well cell culture plates using ATCC-formulated Eagle's minimum essential medium containing 10% FBS, penicillin, and streptomycin. Serially diluted aliquots of each test compound at concentrations ranging from 0.78-200 μg/mL were added to the cells. […] The plates were incubated and cytotoxic effects were determined via the MTT assay.
# as §1
# (§4) Cytotoxicity Assays. For Vero cells: Vero cell was cultured in Complete eagle's minimum essential growth medium (EMEM) containing L-glutamine, sodium pyruvate, minimum essential amino acids, penicillin-streptomycin and 10% fetal bovine serum. Inoculating number of cells were 400,000 cells/mL and a final 40,000 cells/well. After 72 h of exposure of molecules to this cell line at concentrations ranging from 0.78 to 200 μg/mL, the culture medium was changed to complete EMEM without phenol red before addition of yellow tetrazolium dye; MTT. Viability was assessed on the basis of cellular conversion of MTT into a purple formazan product. The absorbance of the colored formazan product was measured at 570 nm by BioTek Synergy HT Spectrophotometer. Linearity of the MTT response to the cell number was determined.
# Vero cells = assay: Cytotoxicity MTT assay, Vero cells; assay type: cell-based, monkey; conditions: Primates, Vero; Table 2; read-out: Vero cells IC50
# Procedure: as §3, §1, §4
# B. subtilis = assay: Antibacterial activity (FIG. 4), B. subtilis; assay type: cell-based
# L12210 = assay: Cytotoxicity MTT assay, L12210; assay type: cell-based; conditions: read-out: Cytotoxicity IC50 L12210
# Procedure: as §1, §2
smiles,measurement,setting,value
NC[C@H]1O[C@@H](O[C@H]([C@H]2O[C@@H](n3ccc(=O)[nH]c3=O)[C@H](O)[C@@H]2O)[C@H](NCCCC(=O)NCc2ccc(N3CCC(Oc4ccc(C(F)(F)F)cc4)CC3)cc2)C(N)=O)[C@H](O)[C@@H]1O [Compound 11],Anti-C. difficile activity,C. difficile ATCC43596,display anti-C. difficile activity
same,MIC,"C. difficile ATCC43596; Clostridioides difficile, ATCC43596, 48 h, read-out: C. difficile ATCC43596 MIC",3.25 µg/mL
same,Antibacterial activity against C. difficile,C. difficile ATCC43596; FIG. 4,displayed antibacterial activity
same,Lowest concentration inhibiting N-glycosylation of β-catenin,[1],0.39 nM
same,Antibacterial activity against C. perfringens,C. perfringens,displayed antibacterial activity
same,IC50,HCT 116,3.54 µM
same,IC50,[2],> 60 µM
same,IC50,KB,7.09 µM
same,Percentage of viable Panc-1 cells,Panc-1 cells [3],near-zero
same,IC50,MDA-MB-435S,7.09 µM
same,IC50,AsPc-1,0.95 µM
same,IC50,SK-OV-3,2.85 µM
same,AsPc-1 cells dead/alive,AsPc-1 cells; Compound 11 0.0488281 μM + Gemcitabine 0.024414 μM,alive
same,AsPc-1 cells dead/alive,AsPc-1 cells; Compound 11 0.0488281 μM + Gemcitabine 0.048828 μM,alive
same,AsPc-1 cells dead/alive,AsPc-1 cells; Compound 11 0.0488281 μM + Gemcitabine 0.097656 μM,dead
same,AsPc-1 cells dead/alive,AsPc-1 cells; Compound 11 0.0488281 μM + Gemcitabine 0.195313 μM,dead
same,AsPc-1 cells dead/alive,AsPc-1 cells; Compound 11 0.0488281 μM + Gemcitabine 0.390625 μM,dead
same,AsPc-1 cells dead/alive,AsPc-1 cells; Compound 11 0.0976563 μM + Gemcitabine 0.024414 μM,alive
same,AsPc-1 cells dead/alive,AsPc-1 cells; Compound 11 0.0976563 μM + Gemcitabine 0.048828 μM,alive
same,AsPc-1 cells dead/alive,AsPc-1 cells; Compound 11 0.0976563 μM + Gemcitabine 0.097656 μM,dead
same,AsPc-1 cells dead/alive,AsPc-1 cells; Compound 11 0.0976563 μM + Gemcitabine 0.195313 μM,dead
same,AsPc-1 cells dead/alive,AsPc-1 cells; Compound 11 0.0976563 μM + Gemcitabine 0.390625 μM,dead
same,AsPc-1 cells dead/alive,AsPc-1 cells; Compound 11 0.1953125 μM + Gemcitabine 0.024414 μM,alive
same,AsPc-1 cells dead/alive,AsPc-1 cells; Compound 11 0.1953125 μM + Gemcitabine 0.048828 μM,alive
same,AsPc-1 cells dead/alive,AsPc-1 cells; Compound 11 0.1953125 μM + Gemcitabine 0.097656 μM,dead
same,AsPc-1 cells dead/alive,AsPc-1 cells; Compound 11 0.1953125 μM + Gemcitabine 0.195313 μM,dead
same,AsPc-1 cells dead/alive,AsPc-1 cells; Compound 11 0.1953125 μM + Gemcitabine 0.390625 μM,dead
same,AsPc-1 cells dead/alive,AsPc-1 cells; Compound 11 0.390625 μM + Gemcitabine 0.024414 μM,alive
same,AsPc-1 cells dead/alive,AsPc-1 cells; Compound 11 0.390625 μM + Gemcitabine 0.048828 μM,alive
same,AsPc-1 cells dead/alive,AsPc-1 cells; Compound 11 0.390625 μM + Gemcitabine 0.097656 μM,dead
same,AsPc-1 cells dead/alive,AsPc-1 cells; Compound 11 0.390625 μM + Gemcitabine 0.195313 μM,dead
same,AsPc-1 cells dead/alive,AsPc-1 cells; Compound 11 0.390625 μM + Gemcitabine 0.390625 μM,dead
same,AsPc-1 cells dead/alive,AsPc-1 cells; Compound 11 0.78125 μM + Gemcitabine 0.024414 μM,alive
same,AsPc-1 cells dead/alive,AsPc-1 cells; Compound 11 0.78125 μM + Gemcitabine 0.048828 μM,alive
same,AsPc-1 cells dead/alive,AsPc-1 cells; Compound 11 0.78125 μM + Gemcitabine 0.097656 μM,dead
same,AsPc-1 cells dead/alive,AsPc-1 cells; Compound 11 0.78125 μM + Gemcitabine 0.195313 μM,dead
same,AsPc-1 cells dead/alive,AsPc-1 cells; Compound 11 0.78125 μM + Gemcitabine 0.390625 μM,dead
same,Σ FIC,AsPc-1 cells; Entry 1: A 11 CA […] + B Gemcitabine CB 0.37 μM,0.3
same,Σ FIC,AsPc-1 cells; Entry 2: A 11 CA 0.22 μM + B Gemcitabine CB 0.37 μM,0.47
same,IC50,"AsPc-1 cells; Homo sapiens, ASPC1, 11 alone, AsPc-1 cells, read-out: IC50 A",0.98 µM
same,Concentration in combination resulting in AsPc-1 cell death,"AsPc-1 cells; as low as, 11 together with Gemcitabine",0.0488 µM
same,Effect of combination of 11 and Gemcitabine,AsPc-1 cells; both combinations tested,synergistic effect
same,IC50,LoVo,0.22 µM
same,IC50,"Hemolysis, sheep blood",206 µM
same,IC50,Panc-1,< 0.098 µM
same,IC50,DPAGT1,0.26 µM
same,"Water solubility, times greater than 10",Water solubility; relative to 10,200 times
same,solubility,Water solubility; water,22 mg/mL
same,IC50,Caco-2,> 60 µM
same,Panc-1 migratory cells,Panc-1 cells [4],"fewer Panc-1 migratory cells than Gemcitabine, Taxol, and Tunicamycin"
same,Effect on viability of C. difficile spores (CFU),C. difficile spores,caused loss of viability of C. difficile spores
same,IC50 at 72 h,[5],> 65 µM
same,IC50,Vero cells,56.8 µM
same,Antibacterial activity against B. subtilis,B. subtilis,displayed antibacterial activity
same,IC50,L12210,> 100 µM
